SMILES strings stand for the structures.

The values below come from paper PMC6321055, “Synthesis of Novel ent-Kaurane-Type Diterpenoid Derivatives Effective for Highly Aggressive Tumor Cells” (Molecules, 2018).

Data set [1] can be described thus: in vitro. Particulars: rat.
Description: (§1) Cells were purchased from the Wuxi Innovatbio Medicine Technology Co. LTD (Wuxi, China) and were maintained at 37 °C under the atmosphere of 5% CO2. The cells of human non-small lung cancer (H292) and colon cancer cell line (SNU-1040) cells were cultured in RPMI-medium and others (rat myoblasts and HepG2) were cultured in dulbecco′s modified eagle medium (DMEM). 10% fetal bovine serum (Tianhang Biotechnology Co., Ltd., Zhejiang, China) and 1% antibiotics (100 U/mL penicillin and 100 mg/mL streptomycin) was supplemented. Cells are inoculated in 96-well plate and cultured for 24 h. After attached to the culture bottle wall cells were divided cells into three groups, (1) control group; (2) positive control group; (3) experiment group. […] After 24 h, 10% MTT was added and cells were culture for 3.5 h. Then the culture medium was discard and 150 µL DMSO was added. Eventually, after incubation for 10 min by shaking in the dark at room temperature, the absorbance was detected at 490 nm using a microplate reader, and the difference was analyzed by prism 7 software.
The test system of data set [2] is HepG2. The experiment in a line: MTT cytotoxicity assay, HepG2. Particulars: for IC50: Homo sapiens, HepG2, 24 h, read-out: In vitro cytotoxic activity IC50, HepG2; for SI (selective index, IC50 of normal cells/IC50 of tumor cells): IC50 L6 / IC50 HepG2.
Description: as §1
For data set [3], the system named is SNU-1040. The experiment in a line: MTT cytotoxicity assay, SNU-1040. The following applies: Homo sapiens, 24 h, read-out: In vitro cytotoxic activity IC50, SNU-1040.
Description: as §1
Data set [4] relates to NSCLC-H292. Nature of the data set: MTT cytotoxicity assay, NSCLC-H292. Particulars: Homo sapiens, 24 h, read-out: In vitro cytotoxic activity IC50, NSCLC-H292.
Description: as §1
Data set [5] in a line: MTT cytotoxicity assay, L6 normal cells. The following applies: rat, L6 rat myotube cells (normal cells).
Description: as §1

As a reminder, the IC50 is the point on the concentration scale where inhibition reaches its midpoint. For the molecule `C=C1C(O)[C@]2(C(=O)OCC)C[C@H]1C(=O)C[C@H]2C1CC(C)(C)C=CC1=O` (some centres unmarked) [Compound 17], in data set [1], the IC50 at 24 h was greater than 10 µM. The IC50 is 1.58 µM in data set [2], 2.82 µM in data set [3] and 0.99 µM in data set [4]. In data set [2], the “SI (selective index, IC50 of normal cells/IC50 of tumor cells)” value was determined as 47.80.

Turning to `C=C1C(=O)[C@]23C[C@H]1CC[C@H]2[C@@]12CO[C@]3(O)[C@@H](O)[C@@H]1C(C)(C)C=CC2=O` [Eriocalyxin B, reference compound], the results for the 50% inhibitory concentration (IC50) in data set [2], in data set [3] and in data set [4] were 2.12 µM, 1.54 µM and 7.11 µM, respectively. The same molecule had an IC50 at 24 h in data set [5] greater than 10 µM.

As usually defined, the melting point is the temperature of the solid-liquid transition. The molecule `C=C1C[C@]2(C(=O)OCC)C[C@H]1C(=O)C[C@@H]2C1CC(C)(C)C=CC1=O` (some centres unmarked) [Compound 13] came in with a melting point of 112 to 114.6 °C. The molecule further displayed a half-inhibitory concentration (IC50) at 24 h in data set [1] greater than 10 µM. The IC50 in data set [2] was greater than 10 µM. The IC50 in data set [3] is 1.41 µM. The IC50 in data set [4] was found to be 4.44 µM.

For the molecule `C=C1C(=O)[C@]2(C(=O)OCC)C[C@H]1C(=O)C[C@H]2C1CC(C)(C)C=CC1=O` (some centres unmarked) [Compound 18], in data set [1], the IC50 at 24 h is greater than 10 µM. In addition, the figures for the IC50 in data set [2], in data set [3] and in data set [4] were 0.56 µM, 3.01 µM and 1.35 µM, respectively.

Regarding `C=C1C(O)[C@]2(C(=O)OCC)C[C@H]1C(=O)C[C@@H]2C1CC(C)(C)C=CC1=O` (some centres unmarked) [Compound 15], in data set [1], the IC50 at 24 h is greater than 10 µM. The IC50 came to 1.81 µM in data set [2], 3.13 µM in data set [3] and 1.99 µM in data set [4].

On to `C=C1C(=O)[C@]2(C(=O)OCC)C[C@H]1C(=O)C[C@@H]2C1CC(C)(C)C=CC1=O` (some centres unmarked) [Compound 16], for which the IC50 at 24 h in data set [1] is greater than 10 µM. The IC50 in data set [2] turned out to be 0.33 µM; in data set [3] it was 2.44 µM; in data set [4], 1.69 µM. For the same molecule, the “SI (selective index, IC50 of normal cells/IC50 of tumor cells)” value in data set [2] is 161.06.

As for `C=C1C[C@]2(C(=O)OCC)C[C@H]1C(=O)C[C@H]2C1CC(C)(C)C=CC1=O` (some centres unmarked) [Compound 14], the melting point lay in the range of 103.2 to 105.8 °C. Further, the IC50 at 24 h in data set [1] was greater than 10 µM. Besides, the IC50 in data set [2] was greater than 10 µM. Moreover, the IC50 in data set [3] worked out at 1.72 µM. In data set [4], the IC50 turned out to be 2.95 µM.
